Inhibition of growth data for eight compounds are collected here from ChEMBL document CHEMBL3784933, “Synthesis and antitumor evaluation of trimethoxyanilides based on 4(3H)-quinazolinone scaffolds” (2016).

Assay type in all cases: functional
The nature of assay [1]: Cytotoxicity against human LOXIMVI cells assessed as growth inhibition at 10 uM after 48 hrs by SRB assay. The settings on record: LOX IMVI, read-out: GI. (The SRB assay estimates cell density from bound dye.)
Assay [2] can be described thus: Cytotoxicity against human UO31 cells assessed as growth inhibition at 10 uM after 48 hrs by SRB assay. The settings on record: UO-31, 48 h, read-out: GI.
The subject of the next assay is SK-MEL-5. Put plainly: Cytotoxicity against human SK-MEL-5 cells assessed as growth inhibition at 10 uM after 48 hrs by SRB assay. Particulars: SK-MEL-5, 48 h, read-out: GI.
Assay [3] is described as follows: Cytotoxicity against human MOLT4 cells assessed as growth inhibition at 10 uM after 48 hrs by SRB assay. Particulars: MOLT-4, 48 h, read-out: GI.
In another assay the test system is NCI-H23. As to the kind of experiment: Cytotoxicity against human NCI-H23 cells assessed as growth inhibition at 10 uM after 48 hrs by SRB assay. Particulars: NCI-H23, 48 h, read-out: GI.
A further assay deals with NCI-H522. As to the kind of experiment: Cytotoxicity against human NCI-H522 cells assessed as growth inhibition at 10 uM after 48 hrs by SRB assay. The settings on record: NCI-H522, 48 h, read-out: GI.
For another assay, the system named is MDA-MB-231. Put plainly: Cytotoxicity against human MDA-MB-231 cells assessed as growth inhibition at 10 uM after 48 hrs by SRB assay. Particulars: MDA-MB-231, 48 h, read-out: GI.
Assay [4] is described as follows: Cytotoxicity against human UACC62 cells assessed as growth inhibition at 10 uM after 48 hrs by SRB assay. Particulars: UACC-62, 48 h, read-out: GI.
For the next assay, the system named is T47D. Put plainly: Cytotoxicity against human T47D cells assessed as growth inhibition at 10 uM after 48 hrs by SRB assay. Particulars: read-out: GI.
Another assay has as its system K562. Put plainly: Cytotoxicity against human K562 cells assessed as growth inhibition at 10 uM after 48 hrs by SRB assay. Particulars: K562, 48 h, read-out: GI.
Assay [5] is described as follows: Cytotoxicity against human Hs 578T cells assessed as growth inhibition at 10 uM after 48 hrs by SRB assay. Particulars: read-out: GI.
For the next assay, the system named is EKVX. As to the kind of experiment: Cytotoxicity against human EKVX cells assessed as growth inhibition at 10 uM after 48 hrs by SRB assay. The settings on record: read-out: GI.
The next assay has as its system A498. As to the kind of experiment: Cytotoxicity against human A498 cells assessed as growth inhibition at 10 uM after 48 hrs by SRB assay. Particulars: A498, 48 h, read-out: GI.
Assay [6] can be described thus: Cytotoxicity against human SF268 cells assessed as growth inhibition at 10 uM after 48 hrs by SRB assay. The settings on record: SF-268, 48 h, read-out: GI.
A short description of assay [7]: Cytotoxicity against human HOP92 cells assessed as growth inhibition at 10 uM after 48 hrs by SRB assay. The settings on record: HOP-92, 48 h, read-out: GI.
Assay [8] in a line: Cytotoxicity against human SNB75 cells assessed as growth inhibition at 10 uM after 48 hrs by SRB assay. The settings on record: SNB-75, 48 h, read-out: GI.
The nature of assay [9]: Cytotoxicity against human Caki1 cells assessed as growth inhibition at 10 uM after 48 hrs by SRB assay. The settings on record: CAKI-1, 48 h, read-out: GI.
Assay [10] is described as follows: Cytotoxicity against human RPMI8226 cells assessed as growth inhibition at 10 uM after 48 hrs by SRB assay. Particulars: RPMI-8226, 48 h, read-out: GI.
The subject of a further assay is A549. As to the kind of experiment: Cytotoxicity against human A549 cells assessed as growth inhibition at 10 uM after 48 hrs by SRB assay. The settings on record: A549, 48 h, read-out: GI.
A short description of assay [11]: Cytotoxicity against human PC3 cells assessed as growth inhibition at 10 uM after 48 hrs by SRB assay. The settings on record: PC-3, 48 h, read-out: GI.
The test system of another assay is SR. Put plainly: Cytotoxicity against human SR cells assessed as growth inhibition at 10 uM after 48 hrs by SRB assay. The settings on record: read-out: GI.
Assay [12] can be described thus: Cytotoxicity against human OVCAR4 cells assessed as growth inhibition at 10 uM after 48 hrs by SRB assay. The settings on record: OVCAR-4, 48 h, read-out: GI.
A short description of assay [13]: Cytotoxicity against human SF295 cells assessed as growth inhibition at 10 uM after 48 hrs by SRB assay. Particulars: SF-295, 48 h, read-out: GI.
Another assay deals with MCF7. As to the kind of experiment: Cytotoxicity against human MCF7 cells assessed as growth inhibition at 10 uM after 48 hrs by SRB assay. The settings on record: MCF7, 48 h, read-out: GI.
In a further assay the test system is CCRF-CEM. As to the kind of experiment: Cytotoxicity against human CCRF-CEM cells assessed as growth inhibition at 10 uM after 48 hrs by SRB assay. Particulars: read-out: GI.
A further assay concerns ACHN. As to the kind of experiment: Cytotoxicity against human ACHN cells assessed as growth inhibition at 10 uM after 48 hrs by SRB assay. The settings on record: read-out: GI.
The next assay relates to SN12C. As to the kind of experiment: Cytotoxicity against human SN12C cells assessed as growth inhibition at 10 uM after 48 hrs by SRB assay. The settings on record: read-out: GI.
In the next assay the test system is U-251. Put plainly: Cytotoxicity against human U251 cells assessed as growth inhibition at 10 uM after 48 hrs by SRB assay. The settings on record: U-251, 48 h, read-out: GI.
Assay [14] in a line: Cytotoxicity against human HOP62 cells assessed as growth inhibition at 10 uM after 48 hrs by SRB assay. Particulars: HOP-62, 48 h, read-out: GI.
Assay [15] in a line: Cytotoxicity against human NCI-ADR-RES cells assessed as growth inhibition at 10 uM after 48 hrs by SRB assay. Particulars: read-out: GI.
Assay [16] is described as follows: Cytotoxicity against human BT549 cells assessed as growth inhibition at 10 uM after 48 hrs by SRB assay. The settings on record: BT-549, 48 h, read-out: GI.
A further assay concerns Malme-3M. As to the kind of experiment: Cytotoxicity against human MALME-3M cells assessed as growth inhibition at 10 uM after 48 hrs by SRB assay. The settings on record: read-out: GI.
For a further assay, the system named is NCI-H226. As to the kind of experiment: Cytotoxicity against human NCI-H226 cells assessed as growth inhibition at 10 uM after 48 hrs by SRB assay. The settings on record: NCI-H226, 48 h, read-out: GI.
Assay [17] in a line: Cytotoxicity against human RXF393 cells assessed as growth inhibition at 10 uM after 48 hrs by SRB assay. The settings on record: RXF 393, 48 h, read-out: GI.

Regarding `COc1cc(NC(=O)CSc2nc3ccccc3c(=O)n2-c2ccc(F)cc2)cc(OC)c1OC`, the inhibition of growth at 10 µM in assay [1] worked out at 10%; in assay [2] it was 42%; with SK-MEL-5, 11%; in [3], 18%; in the assay on NCI-H23, 10%; in the assay on NCI-H522, 19%. Further, the inhibition of growth at 10 µM in the assay on MDA-MB-231 amounted to 24%; in assay [4], 19%; in the assay on T47D it was 23%; in the assay with K562, 14%; in assay [5], 10%; in the assay on EKVX it was 13%. Also, the inhibition of growth at 10 µM in the assay with A498 was determined as 72%; in [6], 10%; in assay [7] it was 43%; in [8], 10%; in assay [9] it was 12%; in assay [10], 14%.
For `COc1cc2nc(SCCC(=O)Nc3cc(OC)c(OC)c(OC)c3)n(-c3ccccc3)c(=O)c2cc1OC`, the inhibition of growth at 10 µM in assay [2] was 25%; with A549, 14%; in assay [11], 18%; in the assay with NCI-H522, 15%; in the assay on MDA-MB-231 it was 14%; in the assay on T47D it was 14%. Also, the inhibition of growth at 10 µM in the assay with SR is 13%; in [8] it was 39%; in assay [9] it was 12%; in [10], 25%.
Regarding `COc1cc(NC(=O)CCSc2nc3ccccc3c(=O)n2-c2ccccc2)cc(OC)c1OC`, the inhibition of growth at 10 µM in assay [1] is 10%; in [2], 44%; in assay [12], 24%; in the assay with A549, 15%; in [13], 13%; in assay [3] it was 15%. In addition, the inhibition of growth at 10 µM in [11] is 39%; in the assay with NCI-H522, 49%; with MDA-MB-231, 41%; in [4] it was 17%; in the assay on MCF7 it was 16%; in the assay on CCRF-CEM it was 19%. Further, the inhibition of growth at 10 µM in the assay on T47D came to 23%; in the assay with SR, 17%; in the assay with K562, 31%; with A498, 46%; with ACHN, 18%; with SN12C, 18%. The inhibition of growth at 10 µM was found to be 22% in [9], 10% in the assay on U-251 and 36% in assay [10].
With `COc1cc(NC(=O)CCSc2nc3ccc(Cl)cc3c(=O)n2-c2ccccc2)cc(OC)c1OC`, the inhibition of growth at 10 µM in assay [12] stood at 15%; with MDA-MB-231 it was 10%; in the assay on SR, 18%; in the assay on A498 it was 22%; in [8], 21%.
As to `COc1cc2nc(SCCC(=O)Nc3cc(OC)c(OC)c(OC)c3)n(-c3ccc(F)cc3)c(=O)c2cc1OC`, the inhibition of growth at 10 µM stood at 11% with K562; 22% with A498; 13% in assay [7]; 12% in the assay on U-251; 11% in assay [14].
For `COc1cc(NC(=O)CSc2nc3ccc(Cl)cc3c(=O)n2-c2ccccc2)cc(OC)c1OC`, the inhibition of growth at 10 µM in assay [15] is 10%; in assay [1], 10%; in assay [2], 50%; in the assay with SK-MEL-5, 17%; in assay [12], 15%; with A549, 12%. The inhibition of growth at 10 µM is 13% in assay [13]; 20% in [11]; 16% with NCI-H522; 17% in the assay on MDA-MB-231; 25% in [4]; 30% in the assay on CCRF-CEM. The inhibition of growth at 10 µM with T47D was 15%; in [16] it was 22%; in [5], 19%; in the assay with EKVX it was 24%; in the assay on A498, 54%; in [6] it was 10%. In addition, the inhibition of growth at 10 µM was 12% in the assay with Malme-3M, 29% in assay [8], 17% in [9] and 15% in [14].
As to `COc1cc(NC(=O)CSc2nc3ccccc3c(=O)n2-c2ccccc2)cc(OC)c1OC`, the inhibition of growth at 10 µM in [2] is 48%; in the assay with SK-MEL-5 it was 16%; in assay [12] it was 12%; in [11] it was 15%; with NCI-H226 it was 23%; with NCI-H522, 11%. For the same compound, the inhibition of growth at 10 µM was determined as 23% in the assay on MDA-MB-231; 19% in [4]; 22% with CCRF-CEM; 18% in the assay on T47D; 12% in [17]; 14% in [5]. The inhibition of growth at 10 µM in the assay with EKVX is 24%; in the assay on A498 it was 54%; with ACHN it was 11%; in the assay with Malme-3M, 11%; in [8] it was 27%; in assay [9], 20%. Moreover, the inhibition of growth at 10 µM in assay [14] stood at 12%.
Consider `COc1cc2nc(SCC(=O)Nc3cc(OC)c(OC)c(OC)c3)n(-c3ccc(F)cc3)c(=O)c2cc1OC`, for which the inhibition of growth at 10 µM is 14% in [1]; 38% in assay [2]; 15% in the assay on NCI-H522; 18% in assay [4]; 15% with CCRF-CEM; 20% in the assay with T47D.
